Source: US8053447B2, “11β-hydroxysteroid dehydrogenase type 1 active compounds” (High Point Pharmaceuticals, LLC, priority 2006, dated 2011)

The compounds below were run against T1, h-11βHSD1 (Homo sapiens, UniProt P28845) (assay: 11βHSD1 enzyme assay (scintillation proximity assay, 3H-cortisone to 3H-cortisol)). Details: extract of yeast transformed with h-11βHSD1; 120 nM 3H-cortisone, 4 mM β-NADPH, 60 min at 30° C., SPA.
T1 construct: made in house
Format: biochemical
Experimental: Pharmacological Methods 11βHSD1 Enzyme Assay Materials
^3H-cortisone and anti-rabbit Ig coated scintillation proximity assay (SPA) beads were purchased from Amersham Pharmacia Biotech, β-NADPH was from Sigma and rabbit anti-cortisol antibodies were from Fitzgerald. An extract of yeast transformed with h-11βHSD1 (Hult et al., FEBS Lett, 441, 25 (1998)) was used as the source of enzyme. The test compounds were dissolved in DMSO (10 mM). All dilutions were performed in a buffer containing 50 mM TRIS-HCl (Sigma Chemical Co), 4 mM EDTA (Sigma Chemical Co), 0.1% BSA (Sigma Chemical Co), 0.01% Tween-20 (Sigma Chemical Co) and 0.005% bacitracin (Novo Nordisk A/S), pH=7.4. Optiplate 96 wells plates were supplied by Packard. The amount of ^3H-cortisol bound to the SPA beads was measured on TopCount NXT, Packard.
h-11βHSD1, 120 nM ^3H-cortisone, 4 mM β-NADPH, antibody (1:200), serial dilutions of test compound and SPA particles (2 mg/well) were added to the wells. The reaction was initiated by mixing the different components and was allowed to proceed under shaking for 60 min at 30° C. The reaction was stopped be the addition of 10 fold excess of a stopping buffer containing 500 μM carbenoxolone and 1 μM cortisone. Data was analysed using GraphPad Prism software.

T1 sequence (P28845 whole entry): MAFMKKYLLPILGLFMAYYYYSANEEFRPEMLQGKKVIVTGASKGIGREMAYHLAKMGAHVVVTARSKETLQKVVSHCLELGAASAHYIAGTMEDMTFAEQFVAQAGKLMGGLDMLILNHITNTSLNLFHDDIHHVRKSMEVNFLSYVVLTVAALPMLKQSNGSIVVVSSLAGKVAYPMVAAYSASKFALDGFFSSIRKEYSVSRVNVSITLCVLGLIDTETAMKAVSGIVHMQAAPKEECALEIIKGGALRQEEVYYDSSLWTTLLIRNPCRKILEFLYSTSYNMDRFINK

Row | Structure (SMILES) | IC50
1 | CCS(=O)(=O)N1CCC(COc2ccc(C(=O)N(C)C3C4CC5CC3CC(O)(C5)C4)cc2)CC1 (centres unmarked) [Example 7f, 4-(1-Ethanesulfonyl-piperidin-4-ylmethoxy)-N-(5-hydroxy-adamantan-2-yl)-N-methyl-benzamide] | 2180 nM
2 | CC1(C)CC2CC(C)(CN2C(=O)c2ccc(OC3CCC(C(=O)O)C3)cc2)C1 (centres unmarked) [Example 8a, 3-[4-(1,3,3-Trimethyl-6-aza-bicyclo[3.2.1]octane-6-carbonyl)-phenoxy]-cyclopentane carboxylic acid] | 604 nM
3 | CN(C(=O)c1ccc(OC2CCC(NC(=O)C3CC3)CC2)cc1)C1C2CC3CC1CC(O)(C3)C2 (centres unmarked) [Example 8c, 4-[4-(Cyclopropanecarbonyl-amino)-cyclohexyloxy]-N-(5-hydroxy-adamantan-2-yl)-N-methyl-benzamide] | 1650 nM
4 | O=C(O)c1cccc(S(=O)(=O)N2CCC(COc3ccc(C(=O)N4CCCC5CCCCC54)cc3)CC2)c1 (centres unmarked) [Example 8f, 3-{4-[4-(Octahydro-quinoline-1-carbonyl)-phenoxymethyl]-piperidine-1-sulfonyl}-benzoic acid] | 266 nM
5 | O=C(O)c1ccc(S(=O)(=O)N2CCC(COc3ccc(C(=O)N4CCCC5CCCCC54)cc3)CC2)cc1 (centres unmarked) [Example 9f, 4-{4-[4-(Octahydro-quinoline-1-carbonyl)-phenoxymethyl]-piperidine-1-sulfonyl}-benzoic acid] | 163 nM
6 | CN(C)C(=O)C1CCC(Oc2ccc(C(=O)N3CC4(C)CC3CC(C)(C)C4)cc2)CC1 (centres unmarked) [Example 12a, 4-[4-(1,1,3,3-Trimethyl-6-aza-bicyclo[3.2.1]octane-6-carbonyl)-phenoxy]-cyclo-hexane carboxylic acid di-methylamide] | 111 nM
7 | NC(=O)C1CCC(Oc2ccc(C(=O)N3CCCC4CCCCC43)cc2)CC1 (centres unmarked) [Example 13a, 4-[4-(Octahydro-quinoline-1-carbonyl)-phenoxy]-cyclo-hexanecarboxylic acid amide] | 73 nM
8 | CC1(C)CC2CC(C)(CN2C(=O)c2ccc(OC3CCC(C(=O)O)CC3)cc2)C1 (centres unmarked) [Example A, 4-[4-(1,3,3-Trimethyl-6-aza-bicyclo[3.2.1]octane-6-carbonyl)-phenoxy]cyclohexanecarboxylic acid] | 360 nM
9 | O=C(c1ccc(OC2CCN(C(=O)C3CC3)CC2)cc1)N1CC2CCC(CC2)C1 [Example B, (3-Aza-bicyclo[3.2.2]non-3-yl)-[4-(1-cyclopropane-carbonyl-piperidin-4-yloxy)-phenyl]-methanone] | 1350 nM
10 | O=C(NC1CCC(Oc2ccc(C(=O)N3C4CCC3CC(O)C4)cc2)CC1)C1CC1 (centres unmarked) [Example C, Cyclopropanecarboxylic acid {4-[4-(3-hydroxy-8-aza-bicyclo[3.2.1]octane-8-carbonyl)-phenoxy]-cyclohexyl}-amide] | 1070 nM
11 | O=C(NC1C2CC3CC(C2)CC1C3)c1ccc(OC2CCC(COc3ccccn3)CC2)cc1 (centres unmarked) [Example E, 4-[4-(Pyridin-2-yl-oxy-methyl)-cyclohexyloxy]-N-adamantan-2-yl-benzamide] | 295 nM
12 | O=C(c1ccc(OCC2CCN(S(=O)(=O)c3ccccn3)CC2)cc1)N1CCCC2CCCCC21 (centres unmarked) [Example F, (Octahydro-quinolin-1-yl)-{4-[1-(pyridine-2-sulfonyl)-piperidin-4-ylmethoxy]-phenyl}-methanone] | 134 nM
13 | O=C(c1ccc(OC2CCN(C(=O)c3ccc(Cl)nc3)C2)cc1)N1CC2CCC(CC2)C1 (centres unmarked) [Example G, {3-[4-(3-Aza-bicyclo[3.2.2]nonane-3-carbonyl)-phenoxy]-pyrrolidin-1-yl}-(6-chloro-pyridin-3-yl)-methanone] | 1180 nM
14 | O=C(NC1C2CC3CC(C2)CC1C3)c1ccc(N2CC3CC2CO3)cc1 (centres unmarked) [Example H, 4-(2-Oxa-5-aza-bicyclo[2.2.1]hept-5-yl)-N-adamantan-2-yl-benzamide] | 43 nM
